From PMC6522510 (Nature Communications, 2019)
Counter-ions that a name gives are not always drawn. Like-named read-outs stand apart in the source and are kept apart here.

How the values were obtained:
Design in all cases: species or system AML cell lines (8); Primary HTS, single concentration about 10 uM, Cell Titer Glo viability; log10 luminescence, per cent inhibition relative to cycloheximide control
Details in all cases: 72 h, relative to cycloheximide control, log10 luminescence, inhibitor
[1] = system: CMK
[2] = system: MV4-11
[3] = system: MOLM-13
[4] = system: M07e
[5] = system: ML-2
[6] = system: CMS
[7] = system: CHRF288-11
[8] = system: U937

Row | Structure (SMILES) | CMK %inh ([1]; CMK %inh, 10 µM) [%] | MV4-11 %inh ([2]; MV4-11 %inh, 10 µM) [%] | MOLM-13 %inh ([3]; MOLM-13 %inh, 10 µM) [%] | M07e %inh ([4]; M07e %inh, 10 µM) [%] | ML-2 %inh ([5]; ML-2 %inh, 10 µM) [%] | CMS %inh ([6]; CMS %inh, 10 µM) [%] | CHRF288-11 %inh ([7]; CHRF288-11 %inh, 10 µM) [%] | U937 %inh ([8]; U937 %inh, 10 µM) [%] | CMK %inh [1] [%] | MV4-11 %inh [2] [%] | MOLM-13 %inh [3] [%] | M07e %inh [4] [%] | ML-2 %inh [5] [%] | CMS %inh [6] [%] | CHRF288-11 %inh [7] [%] | U937 %inh [8] [%]
1 | COc1ccc2cc(CCC(C)=O)ccc2c1 [SJ000285475-4, NABUMETONE] | 3.657 | -0.967 | 3.416 | -0.5005 | 1.434 | -2.394 | -4.035 | 0.6601 |  |  |  |  |  |  |  | 
2 | CC(CN(C)C)CN1c2ccccc2Sc2ccccc21 (stereo not shown) [SJ000285488-4, TRIMEPRAZINE TARTRATE] |  |  |  |  |  |  |  |  | 71.37 | 2.005 | 6.284 | 5.667 | 2.204 | -1.909 | 12.91 | 3.719
3 | CC(C)(S)[C@@H](N)C(=O)O [SJ000285530-3, PENICILLAMINE] |  |  |  |  |  |  |  |  | -2.957 | 0.7087 | 4.905 | 4.147 | 0.1436 | 1.349 | 1.093 | -1.029
4 | CN1C(C(=O)Nc2ccccn2)=C(O)c2ccccc2S1(=O)=O [SJ000285539-7, PIROXICAM] | -2.958 | -0.5288 | -0.4149 | -0.7405 | 0.4088 | -2.071 | -2.388 | 1.434 |  |  |  |  |  |  |  | 
5 | CN1C(C(=O)Nc2ccccn2)=C(O)c2ccccc2S1(=O)=O [SJ000285539-8, PIROXICAM] | -3.417 | 0.9197 | -0.7172 | 1.469 | 0.7358 | 1.221 | -0.4698 | -0.5241 |  |  |  |  |  |  |  | 
6 | C[C@]12C=CC(=O)C=C1CC[C@@H]1[C@@H]2C(=O)C[C@@]2(C)[C@H]1CC[C@]2(O)C(=O)CO [SJ000285543-4, PREDNISONE] | -3.067 | -0.9421 | -1.419 | -1.735 | -1.792 | -1.906 | 3.346 | -1.889 |  |  |  |  |  |  |  | 
7 | C[C@]12C=CC(=O)C=C1CC[C@@H]1[C@@H]2C(=O)C[C@@]2(C)[C@H]1CC[C@]2(O)C(=O)CO [SJ000285543-5, PREDNISONE] | -3.757 | 0.6819 | -2.385 | 3.17 | -0.9024 | -1.984 | 4.454 | -0.6066 |  |  |  |  |  |  |  | 
8 | CCCCC1C(=O)N(c2ccccc2)N(c2ccccc2)C1=O [SJ000285567-6, PHENYLBUTAZONE] |  |  |  |  |  |  |  |  | -7.117 | 1.406 | -1.33 | 3.977 | 1.616 | -0.9956 | -2.959 | -1.746
9 | O=c1c(-c2ccc(O)cc2)coc2cc(O)ccc12 [SJ000285588-6, DAIDZEIN] |  |  |  |  |  |  |  |  | -0.373 | 0.1059 | -0.07438 | 1.994 | -1.236 | -1.1 | 1.05 | -0.9488
10 | CCCCC[C@H](CC(=O)NO)C(=O)N[C@H](C(=O)N1CCC[C@H]1CO)C(C)C [SJ000285589-6, ACTINONIN] |  |  |  |  |  |  |  |  | 2.47 | 13.23 | 22.93 | 6.094 | 7.53 | 4.96 | 7.871 | 11.94
11 | CCCCC1C(=O)N(c2ccccc2)N(c2ccc(O)cc2)C1=O (stereo not shown) [SJ000285591-4, OXYPHENBUTAZONE] |  |  |  |  |  |  |  |  | -9.457 | 79.54 | -3.833 | 119.6 | 63.81 | 98.27 | -1.743 | 81.76
